Data: patent US10227331B2 (priority 2015, dated 2019)

Columns and labels:
[1] = tested on: Escherichia coli expressing NDM-1 (CLB30005, CLB30016); assay type: cell-based; conditions: with imipenem 1 μg/ml, 95% inhibition of bacterial growth; for Escherichia coli MITC95: NDM-1 (CLB30016)
How it was run: (§1)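 Clinical strains grown overnight on blood agar, then diluted 1:100 in 1.1× CAMHB and exposed to test compound with imipenem at 1 μg/ml. Incubation was 22–24 h at 35° C; growth was read by absorbance to find the compound concentration restoring imipenem susceptibility.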

[2] = tested on: Serratia marcescens expressing IMP-1 (CL5741); assay type: cell-based; conditions: with imipenem 1 μg/ml, 95% inhibition of bacterial growth; for Serratia marcescens MITC95: IMP-1 (CL5741)
How it was run: as §1

[3] = tested on: Klebsiella pneumoniae expressing VIM-1 (IHMA599644); assay type: cell-based; conditions: with imipenem 1 μg/ml, 95% inhibition of bacterial growth; for Klebsiella pneumoniae MITC95: VIM-1 (IHMA599644)
How it was run: as §1

IMP-1 = IMP-1 (Serratia marcescens, UniProt P52699); assay: biochemical; assay type: biochemical; conditions: CCF2-FA substrate, 2 hours at 25° C; read-out: IMP-1 IC50
IMP-1, sequence (P52699 whole entry, looked up, species assumed): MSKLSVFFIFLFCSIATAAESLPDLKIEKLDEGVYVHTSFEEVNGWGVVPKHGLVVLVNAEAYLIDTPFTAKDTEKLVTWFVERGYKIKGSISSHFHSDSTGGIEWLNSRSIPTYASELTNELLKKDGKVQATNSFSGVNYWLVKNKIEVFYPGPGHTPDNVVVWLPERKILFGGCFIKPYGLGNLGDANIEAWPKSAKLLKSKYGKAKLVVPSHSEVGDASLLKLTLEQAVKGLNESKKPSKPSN
How it was run: (§2)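 Fluorescence assay of metallo-β-lactamase activity using CCF2-FA, a cephalosporin-linked 7-hydroxycoumarin–fluorescein substrate. Inhibitor, enzyme and substrate were incubated together for 2 hours at 25° C. IC50 came from a 4-parameter fit of inhibition versus inhibitor concentration.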

NDM-1 = NDM-1 (Klebsiella pneumoniae, UniProt C7C422); assay: biochemical; assay type: biochemical; conditions: CCF2-FA substrate, 2 hours at 25° C; read-out: NDM-1 IC50
NDM-1, sequence (C7C422 whole entry, looked up, species assumed): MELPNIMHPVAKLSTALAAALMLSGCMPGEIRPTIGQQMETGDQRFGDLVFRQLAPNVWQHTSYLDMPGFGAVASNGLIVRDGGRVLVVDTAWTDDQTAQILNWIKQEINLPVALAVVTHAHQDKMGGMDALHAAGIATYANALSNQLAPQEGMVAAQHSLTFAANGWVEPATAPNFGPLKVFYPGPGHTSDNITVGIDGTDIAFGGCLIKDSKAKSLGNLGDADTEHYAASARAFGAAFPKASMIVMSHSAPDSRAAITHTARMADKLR
How it was run: as §2

[4] = tested on: P. aeruginosa expressing IMP-1, efflux− (MB9799); assay: Efflux: concentration of MBL inhibitor which restores susceptibility to imipenem; assay type: cell-based, Pseudomonas aeruginosa; conditions: imipenem at 2 μg/mL, in the presence of a class A, C, D serine β-lactamase inhibitor closely related to relebactam
Text: (§3) The strain background is Pseudomonas aeruginosa PAO1.

VIM-1 = VIM-1 (Pseudomonas aeruginosa (strain ATCC 15692 / DSM 22644 / CIP 104116 / JCM 14847 / LMG 12228 / 1C / PRS 101 / PAO1), UniProt A0A0F7KYQ8); assay: biochemical; conditions: CCF2-FA substrate, 2 hours at 25° C
How it was run: as §2

[5] = tested on: P. aeruginosa expressing IMP-1, efflux+ (MB9798); assay type: cell-based, Pseudomonas aeruginosa; conditions: for P. aeruginosa expressing IMP-1, efflux+ (MB9798) MITC95: imipenem at 2 μg/mL, in the presence of a class A, C, D serine β-lactamase inhibitor closely related to relebactam; for Efflux ratio: ratio MITC95 PA_9798/MITC95 PA_9799
Text: as §3

Row | SMILES | Escherichia coli expressing NDM-1 (CLB30016) MITC95 [1] [µM] | Serratia marcescens expressing IMP-1 (CL5741) MITC95 [2] [µM] | Klebsiella pneumoniae expressing VIM-1 (IHMA599644) MITC95 [3] [µM] | IC50 (IMP-1) [nM] | IC50 (NDM-1) [nM] | P. aeruginosa expressing IMP-1, efflux− (MB9799) MITC95 [4] [µM] | IC50 (VIM-1) [nM] | P. aeruginosa expressing IMP-1, efflux+ (MB9798) MITC95 [5] [µM] | Efflux ratio [5] | Escherichia coli MITC95 [1] [µM] | Serratia marcescens MITC95 [2] [µM] | Klebsiella pneumoniae MITC95 [3] [µM]
1 | NCCS(=O)(=O)c1ccc(-c2cccc(C(=O)O)c2N)c(-c2nn[nH]n2)c1S(N)(=O)=O [Example 199, 2-Amino-4′-((2-aminoethyl)sulfonyl)-3′-sulfamoyl-2′-(2H-tetrazol-5-yl)-[1,1′-biphenyl]-3-carboxylic Acid] | 6.25 | 12.5 | 25 | 1.84 | 0.197 | 6.25 | 0.646 | 12.5 | 2.00 | – | – | –
2 | Nc1cccc(-c2ccc(S(=O)(=O)C3CNC3)c(S(N)(=O)=O)c2-c2nn[nH]n2)n1 [Example 223, 3-(6-aminopyridin-2-yl)-6-(azetidin-3-ylsulfonyl)-2-(2H-tetrazol-5-yl)benzenesulfonamide] | 0.7813 | 3.125 | 6.25 | 10.2 | 2.51 | 3.125 | 3.16 | 6.25 | 2.00 | – | – | –
3 | CC(=O)Nc1nc2c(-c3ccc(S(=O)(=O)CCN)c(S(N)(=O)=O)c3-c3nn[nH]n3)cccc2s1 [Example 82, N-(4-(4-(2-aminoethylsulfonyl)-3-sulfamoyl-2-(2H-tetrazol-5-yl)phenyl)benzo[d]thiazol-2-yl)acetamide] | 1.563 | 1.563 | 3.125 | 0.194 | 0.0871 | 1.563 | 0.131 | 3.125 | 2.00 | – | – | –
4 | NCCN1CCC(S(=O)(=O)c2ccc(-c3cccc4nc(N)[nH]c34)c(-c3nn[nH]n3)c2S(N)(=O)=O)CC1 [Example 48, 3-(2-amino-3H-benzo[d]imidazol-4-yl)-6-(1-(2-aminoethyl)piperidin-4-ylsulfonyl)-2-(2H-tetrazol-5-yl)benzenesulfonamide] | 1.563 | 3.125 | 3.125 | 2.3 | 0.392 | 1.563 | 0.404 | 3.125 | 2.00 | – | – | –
5 | CCn1c(N)nc2c(-c3ccc(S(=O)(=O)CCN)c(S(N)(=O)=O)c3-c3nn[nH]n3)cccc21 [Example 284, 3-(2-amino-1-ethyl-1H-benzo[d]imidazol-4-yl)-6-(2-aminoethylsulfonyl)-2-(2H-tetrazol-5-yl)benzenesulfonamide] | – | – | – | 0.327 | 0.289 | 0.7813 | 0.507 | 3.125 | 4.00 | 0.3906 | 1.563 | 1.563
6 | NS(=O)(=O)c1c(S(=O)(=O)C2CNC2)ccc(-c2cncc3[nH]c(=O)[nH]c23)c1-c1nnn[nH]1 [Example 301, 6-(azetidin-3-ylsulfonyl)-3-(2-oxo-2,3-dihydro-1H-imidazo[4,5-c]pyridin-7-yl)-2-(1H-tetrazol-5-yl)benzenesulfonamide] | – | – | – | 2.87 | 0.536 | 1.563 | 0.96 | 3.125 | 2.00 | 0.7813 | 3.125 | 6.25
7 | NCCS(=O)(=O)c1ccc(-c2cccc3nc(N)nn23)c(-c2nn[nH]n2)c1S(N)(=O)=O [Example 225, 3-(2-amino-[1,2,4]triazolo[1,5-a]pyridin-5-yl)-6-((2-aminoethyl)sulfonyl)-2-(2H-tetrazol-5-yl)benzenesulfonamide] | 1.563 | 1.563 | 3.125 | 1.97 | 0.164 | 1.563 | 0.229 | 3.125 | 2.00 | – | – | –
8 | Nc1nc2cccc(-c3ccc(S(=O)(=O)[C@H]4CC[C@@H](N)CC4)c(S(N)(=O)=O)c3-c3nn[nH]n3)c2[nH]1 [Example 177, 3-(2-amino-3H-benzo[d]imidazol-4-yl)-6-((1s,4s)-4-aminocyclohexylsulfonyl)-2-(2H-tetrazol-5-yl)benzenesulfonamide] | 0.7813 | 0.7813 | 1.563 | 1.35 | 0.264 | 0.7813 | 0.293 | 0.7813 | 1.00 | – | – | –
9 | Nc1nc2c(-c3ccc(S(=O)(=O)C4CNC4)c(S(N)(=O)=O)c3-c3nn[nH]n3)cccn2n1 [Example 216, 3-(2-amino-[,2,4]triazolo[1,5-a]pyridin-8-yl)-6-(azetidin-3-ylsulfonyl)-2-(2H-tetrazol-5-yl)benzenesulfonamide] | 12.5 | 3.125 | 6.25 | 1.66 | 0.102 | 1.563 | 0.151 | 6.25 | 4.00 | – | – | –
10 | N#Cc1ccc(-c2ccc(S(=O)(=O)CCN)c(S(N)(=O)=O)c2-c2nnn[nH]2)cn1.O=C(O)C(F)(F)F [Example 144, 2-((4-(6-cyanopyridin-3-yl)-2-sulfamoyl-3-(1H-tetrazol-5-yl)phenyl)sulfonyl)ethanaminium 2,2,2-trifluoroacetate] | 0.7813 | 3.125 | 3.125 | 5.59 | 7.21 | 1.563 | 3.04 | 50 | 31.99 | – | – | –
11 | NC(=O)c1ccc(-c2ccc(S(=O)(=O)C3CNC3)c(S(N)(=O)=O)c2-c2nnn[nH]2)c(N)n1 [Example 67, 6-Amino-5-(4-(azetidin-3-ylsulfonyl)-3-sulfamoyl-2-(1H-tetrazol-5-yl)phenyl)picolinamide] | 1.563 | 3.125 | 3.125 | 1.32 | 0.376 | 1.563 | 0.333 | 3.125 | 2.00 | – | – | –
12 | Cn1nc(N)c2c(-c3ccc(S(=O)(=O)C4CNC4)c(S(N)(=O)=O)c3-c3nnn[nH]3)cccc21 [Example 265, 3-(3-amino-1-methyl-1H-indazol-4-yl)-6-(azetidin-3-ylsulfonyl)-2-(1H-tetrazol-5-yl) benzenesulfonamide] | – | – | – | 1.49 | 0.168 | 1.563 | 0.239 | 6.25 | 4.00 | 3.125 | 1.563 | 6.25
13 | NCCS(=O)(=O)c1ccc(-c2cccc3ncccc23)c(-c2nn[nH]n2)c1S(N)(=O)=O [Example 324, 6-((2-aminoethyl)sulfonyl)-3-(quinolin-5-yl)-2-(2H-tetrazol-5-yl) benzenesulfonamide] | – | – | – | 0.55 | 0.222 | 0.7813 | 0.139 | 6.25 | 8.00 | 1.563 | 1.563 | 3.125
